The values below come from PubChem BioAssay AID264 (DTP/NCI, 2004).

The test system of the test is nude mice, LX-1 lung xenograft intrarenal, tumor weight T/C. The test is described as follows: NCI In Vivo Anticancer Drug Screen. Data for tumor model Human Lung LX-1 Xenograft (intrarenal inoculation) in NU/NU Swiss (nude) mice. To be noted: endpoint: mean tumor weight change, higher = larger tumour. In a few lines: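 Readout: T/C, i.e. treated-group tumor measurement over vehicle-control measurement. Mice bearing transplantable tumors were dosed with compound or vehicle.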

The mark [1] stands for this setting: dose: 50.0 mg/kg/injection, schedule: Q04DX003 (sc), vehicle: saline with Tween-80.
Where [2] appears, read: dose: 300.0 mg/kg/injection, schedule: Q04DX003 (sc), vehicle: saline with Tween-80.
[3] abbreviates: dose: 25.0 mg/kg/injection, schedule: Q04DX003 (sc), vehicle: Klucel (hydroxypropylcellulose) (HPC).

“And” between values parts separate entries of the source, which are not always exact repeats. Equal values may be shown once. Inconclusive results are not listed.

With `NC(Cc1ccc(N(CCCl)CCCl)cc1)C(=O)O` (configuration not stated), the T/C runs as follows: (dose: 2.5 mg/kg/injection, schedule: Q04DX003 (sc), vehicle: Klucel (hydroxypropylcellulose) (HPC)) 75 % of control; (dose: 5.0 mg/kg/injection, schedule: Q04DX003 (sc), vehicle: Klucel (hydroxypropylcellulose) (HPC)) 105 % of control; (dose: 40.0 mg/kg/injection, schedule: Q04DX003 (sc), vehicle: Klucel (hydroxypropylcellulose) (HPC)) 22 % of control.

Turning to `CC1OC1C(=O)C1(O)C(C)C(O)C23OC2(C(O)c2c(O)cccc2C3=O)C1O` (configuration not stated), the T/C is 83 % of control (dose: 6.0 mg/kg/injection, schedule: Q04DX003 (sc), vehicle: Klucel (hydroxypropylcellulose) (HPC)); 98 % of control (dose: 12.0 mg/kg/injection, schedule: Q04DX003 (sc), vehicle: Klucel (hydroxypropylcellulose) (HPC)); 110 % of control (dose: 24.0 mg/kg/injection, schedule: Q04DX003 (sc), vehicle: Klucel (hydroxypropylcellulose) (HPC)); 41 % of control (dose: 48.0 mg/kg/injection, schedule: Q04DX003 (sc), vehicle: Klucel (hydroxypropylcellulose) (HPC)).

In the case of `O=C([CH-]C(=O)C(F)(F)F)c1ccccc1.O=C([CH-]C(=O)C(F)(F)F)c1ccccc1.O=C([CH-]C(=O)C(F)(F)F)c1ccccc1.O=C([CH-]C(=O)C(F)(F)F)c1ccccc1.[Eu+3].c1ccncc1`, the T/C is 85 % of control (dose: 50.0 mg/kg/injection, schedule: Q01DX010 (sc), vehicle: Klucel (hydroxypropylcellulose) (HPC)); 49 % of control (dose: 200.0 mg/kg/injection, schedule: Q01DX010 (sc), vehicle: Klucel (hydroxypropylcellulose) (HPC)); 40 % of control (dose: 400.0 mg/kg/injection, schedule: Q01DX010 (sc), vehicle: Klucel (hydroxypropylcellulose) (HPC)); 65 % of control (dose: 800.0 mg/kg/injection, schedule: Q01DX010 (sc), vehicle: Klucel (hydroxypropylcellulose) (HPC)).

`O=c1c(O)c(-c2cc(O)c(O)c(O)c2)oc2cc(O)cc(O)c12`: the T/C is 93 % of control (dose: 6.0 mg/kg/injection, schedule: Q04DX003 (sc), vehicle: saline with Tween-80); 99 % of control (dose: 12.0 mg/kg/injection, schedule: Q04DX003 (sc), vehicle: saline with Tween-80); 92 % of control (dose: 24.0 mg/kg/injection, schedule: Q04DX003 (sc), vehicle: saline with Tween-80); 96 % of control (dose: 48.0 mg/kg/injection, schedule: Q04DX003 (sc), vehicle: saline with Tween-80); 100 % of control under setting [1]; 83 % of control (dose: 100.0 mg/kg/injection, schedule: Q04DX003 (sc), vehicle: saline with Tween-80). Also, the T/C (dose: 200.0 mg/kg/injection, schedule: Q04DX003 (sc), vehicle: saline with Tween-80) is 69 % of control and the T/C (dose: 400.0 mg/kg/injection, schedule: Q04DX003 (sc), vehicle: saline with Tween-80) is 94 % of control.

As to `Cc1ccccc1CN1C2=NCCN2C(=O)C2=C1CCN(S(=O)(=O)c1ccc(Cl)c(S(N)(=O)=O)c1)C2`, the T/C runs as follows: (dose: 150.0 mg/kg/injection, schedule: Q04DX003 (sc), vehicle: saline) 77 % of control; (dose: 300.0 mg/kg/injection, schedule: Q04DX003 (sc), vehicle: saline) 96 % of control; (dose: 600.0 mg/kg/injection, schedule: Q04DX003 (sc), vehicle: saline) 155 % of control.

For `CCCCC1CCCCCCc2[nH]c(/C=C3\N=C(c4ccc[nH]4)C=C3OC)cc21` (configuration not stated), the T/C was 61 % of control (dose: 4.0 mg/kg/injection, schedule: Q04DX003 (sc), vehicle: saline with Tween-80); 66 % of control (dose: 8.0 mg/kg/injection, schedule: Q04DX003 (sc), vehicle: saline with Tween-80); 55 % of control (dose: 16.0 mg/kg/injection, schedule: Q04DX003 (sc), vehicle: saline with Tween-80).

Turning to `CCN(CC)CCNc1ccc(C)c2sc3ccc(O)cc3c(=O)c12`, the T/C is 71 % of control under setting [2]; 98 % of control (dose: 600.0 mg/kg/injection, schedule: Q04DX003 (sc), vehicle: saline with Tween-80); 83 % of control (dose: 1200.0 mg/kg/injection, schedule: Q04DX003 (sc), vehicle: saline with Tween-80); 52 % of control (dose: 2400.0 mg/kg/injection, schedule: Q04DX003 (sc), vehicle: saline with Tween-80).

Consider `CCN1/C(=C/C=C/C=C\C=C\c2sc3ccc4ccccc4c3[n+]2CC)Sc2ccc3ccccc3c21`, for which the T/C is, setting by setting: (dose: 6.25 mg/kg/injection, schedule: Q04DX003 (sc), vehicle: saline with Tween-80) 156 % of control; (dose: 12.5 mg/kg/injection, schedule: Q04DX003 (sc), vehicle: saline with Tween-80) 116 % of control; (dose: 25.0 mg/kg/injection, schedule: Q04DX003 (sc), vehicle: saline with Tween-80) 78 % of control; under setting [1], 122 % of control.

In the case of `O=C(O)C(CSC(c1ccccc1)(c1ccccc1)c1ccccc1)N=Cc1cccs1` (configuration not stated), the T/C runs as follows: (dose: 100.0 mg/kg/injection, schedule: Q04DX003 (sc), vehicle: suspension in saline) 86 % of control; (dose: 200.0 mg/kg/injection, schedule: Q04DX003 (sc), vehicle: suspension in saline) 108 % of control; (dose: 400.0 mg/kg/injection, schedule: Q04DX003 (sc), vehicle: suspension in saline) 55 % of control.

On to `CN1CCN(c2ccc3nc(-c4ccc5nc(-c6ccc(O)cc6)[nH]c5c4)[nH]c3c2)CC1`, for which the T/C was 73 % of control (dose: 200.0 mg/kg/injection, schedule: Q04DX003 (sc), vehicle: saline) and 73 % of control (dose: 400.0 mg/kg/injection, schedule: Q04DX003 (sc), vehicle: saline).

Regarding `COC1=CC(=O)C(OC)=C(OC)C1=O`, the T/C is, setting by setting: (dose: 38.0 mg/kg/injection, schedule: Q04DX003 (sc), vehicle: saline with Tween-80) 122 % of control; (dose: 75.0 mg/kg/injection, schedule: Q04DX003 (sc), vehicle: saline with Tween-80) 72 % of control; (dose: 150.0 mg/kg/injection, schedule: Q04DX003 (sc), vehicle: saline with Tween-80) 104 % of control; under setting [2], 122 % of control.

For the compound `CC1(C)N=C(N)N=C(N)N1c1ccc(F)c(C(F)(F)F)c1`, the T/C runs as follows: (dose: 3.13 mg/kg/injection, schedule: Q01DX010 (sc), vehicle: saline) 76 % of control; (dose: 12.5 mg/kg/injection, schedule: Q01DX010 (sc), vehicle: saline) 118 % of control and 122 % of control; (dose: 25.0 mg/kg/injection, schedule: Q01DX010 (sc), vehicle: saline) 33 % of control.

`CN(C)C(=O)SC1=C(c2c(Cl)cccc2Cl)C(=O)c2ccccc21`: the T/C was 84 % of control (dose: 300.0 mg/kg/injection, schedule: Q04DX003 (sc), vehicle: Klucel (hydroxypropylcellulose) (HPC)); 106 % of control (dose: 600.0 mg/kg/injection, schedule: Q04DX003 (sc), vehicle: Klucel (hydroxypropylcellulose) (HPC)); 65 % of control (dose: 1200.0 mg/kg/injection, schedule: Q04DX003 (sc), vehicle: Klucel (hydroxypropylcellulose) (HPC)); 92 % of control (dose: 2400.0 mg/kg/injection, schedule: Q04DX003 (sc), vehicle: Klucel (hydroxypropylcellulose) (HPC)).

Turning to `CC1CCC(NC(=O)N(CCCl)N=O)CC1` (configuration not stated), the T/C was 34 % of control (dose: 6.25 mg/kg/injection, schedule: Q01DX010 (sc), vehicle: Klucel (hydroxypropylcellulose) (HPC)) and 5 % of control (dose: 12.5 mg/kg/injection, schedule: Q01DX010 (sc), vehicle: Klucel (hydroxypropylcellulose) (HPC)).

In the case of `Cc1cc2nc3c(=O)[nH]c(=O)nc-3n(CC(O)C(O)C(O)C(O)CO)c2cc1C` (configuration not stated), the T/C (dose: 100.0 mg/kg/injection, schedule: Q01DX010 (sc), vehicle: saline with Tween-80) was 75 % of control; the T/C (dose: 200.0 mg/kg/injection, schedule: Q01DX010 (sc), vehicle: saline with Tween-80) is 92 % of control; the T/C (dose: 400.0 mg/kg/injection, schedule: Q01DX010 (sc), vehicle: saline with Tween-80) is 66 % of control.

On to `O=c1[nH]c(=O)n(C2OC(CO)C(O)C2O)cc1F` (configuration not stated), for which the T/C by setting is: (dose: 9.37 mg/kg/injection, schedule: Q04DX003 (sc), vehicle: saline) 77 % of control; (dose: 18.75 mg/kg/injection, schedule: Q04DX003 (sc), vehicle: saline) 26 % of control.

On to `N#C[Se-].c1ccc([Te+](c2ccccc2)c2ccccc2)cc1`, for which the T/C reads like this: (dose: 6.25 mg/kg/injection, schedule: Q04DX003 (sc), vehicle: Klucel (hydroxypropylcellulose) (HPC)) 75 % of control; under setting [3], 82 % of control.

As to `C/C(=N\N=C(/[Se])N1CC2CCC(CC2)C1)c1ccccn1`, the T/C was 100 % of control (dose: 12.5 mg/kg/injection, schedule: Q04DX003 (sc), vehicle: Klucel (hydroxypropylcellulose) (HPC)); 79 % of control under setting [3]; 85 % of control (dose: 50.0 mg/kg/injection, schedule: Q04DX003 (sc), vehicle: Klucel (hydroxypropylcellulose) (HPC)); 253 % of control (dose: 100.0 mg/kg/injection, schedule: Q04DX003 (sc), vehicle: Klucel (hydroxypropylcellulose) (HPC)).
